We go through 26 compounds from patent publication US20250230155A1 (Vanderbilt University, priority 2021, published 2025).

For orientation: Emax means the size of the effect at its maximum, as opposed to the concentration needed. Broadly, the EC50 is the concentration giving half of the maximal effect.

A value given as a limit tells only on which side of the number the result lay.

The assay addresses T1, human mAChR M4 (Homo sapiens, UniProt P08173).
T1 construct: expressed in transfected cells
T1 sequence (P08173 1-479): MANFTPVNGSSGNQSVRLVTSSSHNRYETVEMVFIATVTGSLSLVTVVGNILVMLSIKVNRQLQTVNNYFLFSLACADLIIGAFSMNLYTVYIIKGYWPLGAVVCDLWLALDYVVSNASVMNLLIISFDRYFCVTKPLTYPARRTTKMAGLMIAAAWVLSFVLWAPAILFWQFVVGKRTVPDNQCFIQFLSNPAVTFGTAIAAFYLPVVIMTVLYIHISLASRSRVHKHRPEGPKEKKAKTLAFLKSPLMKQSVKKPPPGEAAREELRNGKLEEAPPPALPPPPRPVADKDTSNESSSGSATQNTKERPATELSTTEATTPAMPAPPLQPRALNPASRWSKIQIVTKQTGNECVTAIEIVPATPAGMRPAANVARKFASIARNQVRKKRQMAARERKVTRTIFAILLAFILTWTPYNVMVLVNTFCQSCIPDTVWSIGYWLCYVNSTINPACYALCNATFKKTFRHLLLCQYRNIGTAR
The assay is described as follows: mAChR M4 cell-based functional assay (calcium mobilization, CHO-K1 hM4-Gqi5 cells). To be noted: for Emax at 30 µM: CHO-K1, % ACh maximum at 30 μM, human M4; for EC50: positive allosteric modulator activity, increase in the EC20 acetylcholine response, CHO-K1 hM4-Gqi5 cells, read-out: Human M4 EC50; for Emax: CHO-K1. The essentials: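 Fluorescent calcium read-out (Fluo-4 AM, FDSS, 1 Hz) in hM4-Gqi5 CHO-K1 cells, 11-point 1:3 compound series. Agonism scored on compound addition, PAM activity as increase of the 144 s EC20 acetylcholine response, antagonism as decrease of the 230 s EC80 response; four-parameter logistic fits give EC50 and Emax.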
On the technique in general: A change in cytosolic calcium serves as a functional read-out for many receptors and channels.

`Cc1cc(C(=O)N2CC(c3ccncc3)C2)nnc1N1CCc2ncc(N3CCCn4nccc43)cc2C1` [Example 517, (6-(3-(6,7-dihydropyrazolo[1,5-a]pyrimidin-4(5H)-yl)-7,8-dihydro-1,6-naphthyridin-6(5H)-yl)-5-methylpyridazin-3-yl)(3-(pyridin-4-yl)azetidin-1-yl)methanone]: the Emax at 30 µM is 76% and the EC50 stood at 12 nM.
As for `Cc1nc(Cl)c(C)c(N2Cc3cc(C(F)(F)F)cnc3C(C)C2)n1` (stereo not shown) [compound 256, 6-(6-chloro-2,5-dimethylpyrimidin-4-yl)-8-methyl-3-(trifluoromethyl)-5,6,7,8-tetrahydro-1,6-naphthyridine], the Emax at 30 µM amounted to 85% and the EC50 stood at 663 nM.
As for `Cc1nc(Cl)c(C)c(N2CCc3ncc(-c4sc(C)nc4C)cc3C2)n1` [compound 198, 5-[6-(6-chloro-2,5-dimethyl-pyrimidin-4-yl)-7,8-dihydro-5H-1,6-naphthyridin-3-yl]-2,4-dimethyl-thiazole], the Emax at 30 µM came out at 92% and the EC50 was 137 nM.
Turning to `Cc1cnc2c(c1)CN(c1nnc(C#N)c(C)c1C)CC2` [compound 117, 4,5-dimethyl-6-(3-methyl-7,8-dihydro-5H-1,6-naphthyridin-6-yl)pyridazine-3-carbonitrile], the Emax was 55% and the EC50 was found to be 3650 nM.
Regarding `Cc1cc(C)n(-c2cnc3c(c2)CN(c2ncc(C#N)cc2C)CC3)n1` [Example 346, 6-(3-(3,5-dimethyl-1H-pyrazol-1-yl)-7,8-dihydro-1,6-naphthyridin-6(5H)-yl)-5-methylnicotinonitrile], the maximum response (Emax) at 30 µM was found to be 88% and the EC50 worked out at 1300 nM.
Consider `Cc1cc(C#N)nnc1N1CCc2ncc(N3CCOC(C)(C)C3)cc2C1` [Example 398, 6-(3-(2,2-dimethylmorpholino)-7,8-dihydro-1,6-naphthyridin-6(5H)-yl)-5-methylpyridazine-3-carbonitrile], for which the Emax at 30 µM turned out to be 74% and the EC50 amounted to 102 nM.
As to `Cc1cc(C#N)c(-c2cccn2C)nc1N1CCc2ncc(C(F)(F)F)cc2C1` [Example 372, 5-methyl-2-(1-methyl-1H-pyrrol-2-yl)-6-(3-(trifluoromethyl)-7,8-dihydro-1,6-naphthyridin-6(5H)-yl)nicotinonitrile], the Emax at 30 µM was found to be 55% and the EC50 worked out at 5800 nM.
As to `Cc1nc(Cl)c(C)c(N2CCc3ncc(-c4c(C)noc4C)cc3C2)n1` [compound 197, 4-[6-(6-chloro-2,5-dimethyl-pyrimidin-4-yl)-7,8-dihydro-5H-1,6-naphthyridin-3-yl]-3,5-dimethyl-isoxazole], the Emax at 30 µM stood at 92% and the EC50 was 63 nM.
Taken in the same sequence, the figures for `Cc1cnccc1Nc1cnc2c(c1)CN(c1nnc(C#N)cc1C)CC2` [Example 619, 5-methyl-6-(3-((3-methylpyridin-4-yl)amino)-7,8-dihydro-1,6-naphthyridin-6(5H)-yl)pyridazine-3-carbonitrile] were 86% and 1020 nM.
For the compound `Cc1cnccc1CNC(=O)c1cc(C)c(N2CCc3ncc(C(F)(F)F)cc3C2)nn1` [Example 494, 5-methyl-N-((3-methylpyridin-4-yl)methyl)-6-(3-(trifluoromethyl)-7,8-dihydro-1,6-naphthyridin-6(5H)-yl)pyridazine-3-carboxamide], the Emax at 30 µM is 106% and the EC50 came out at 36 nM.
For `Cc1c(C#N)nnc(N2CCc3ncc(N4CCOC(c5ccccn5)C4)cc3C2)c1C` (stereo not shown) [Example 380, 4,5-dimethyl-6-(3-(2-(pyridin-2-yl)morpholino)-7,8-dihydro-1,6-naphthyridin-6(5H)-yl)pyridazine-3-carbonitrile], the Emax at 30 µM amounted to 63% and the EC50 came out at 2150 nM.
The matching figures for `Cc1nc(Cl)c(C)c(N2CCc3ncc(Oc4ccc5c(cnn5C)c4)cc3C2)n1` [compound 208, 6-(6-chloro-2,5-dimethyl-pyrimidin-4-yl)-3-(1-methylindazol-5-yl)oxy-7,8-dihydro-5H-1,6-naphthyridine]: 76% and 304 nM.
Take `Cc1cc(C(=O)NCc2csc3ccccc23)cnc1N1CCc2ncccc2C1` [compound 128, N-(benzothiophen-3-ylmethyl)-6-(7,8-dihydro-5H-1,6-naphthyridin-6-yl)-5-methyl-pyridine-3-carboxamide]: the Emax at 30 µM amounted to 74% and the EC50 is 1150 nM.
As for `Cc1cc(C(=O)NCc2ncc(C(F)(F)F)cn2)cnc1N1CCc2ncccc2C1` [compound 145, 6-(7,8-dihydro-5H-1,6-naphthyridin-6-yl)-5-methyl-N-[[5-(trifluoromethyl)pyrimidin-2-yl]methyl]pyridine-3-carboxamide], the Emax at 30 µM worked out at 50% and the EC50 was at least 10000 nM.
Take `Cc1cc(C(=O)N2CC3(COC3)C2)nnc1N1CCc2ncc(-c3ccnn3C)cc2C1` [Example 565, (5-methyl-6-(3-(1-methyl-1H-pyrazol-5-yl)-7,8-dihydro-1,6-naphthyridin-6(5H)-yl)pyridazin-3-yl)(2-oxa-6-azaspiro[3.3]heptan-6-yl)methanone]: the Emax at 30 µM came out at 72% and the EC50 came to 128 nM.
Turning to `Cc1ccc(Nc2cnc3c(c2)CN(c2nnc(C#N)c(C)c2C)CC3)c(F)n1` [compound 79, 6-[3-[(2-fluoro-6-methyl-3-pyridyl)amino]-7,8-dihydro-5H-1,6-naphthyridin-6-yl]-4,5-dimethyl-pyridazine-3-carbonitrile], the Emax at 30 µM worked out at 82% and the EC50 was found to be 232 nM.
In the case of `Cc1cc(C(=O)NCc2ccc3ncnn3c2)cnc1N1CCc2ncc(-c3cn(C)nc3C)cc2C1` [Example 479, N-([1,2,4]triazolo[1,5-a]pyridin-6-ylmethyl)-6-(3-(1,3-dimethyl-1/- pyrazol-4-yl)-7,8-dihydro-1,6-naphthyridin-6(5H)-yl)-5-methylnicotinamide], the Emax at 30 µM amounted to 57% and the EC50 amounted to 886 nM.
For the compound `Cc1cc(C(=O)N2CCC(c3ccncc3)C2)nnc1N1CCc2ncc(N3CCCn4nccc43)cc2C1` (stereo not shown) [Example 521, (6-(3-(6,7-dihydropyrazolo[1,5-a]pyrimidin-4(5H)-yl)-7,8-dihydro-1,6-naphthyridin-6(5H)-yl)-5-methylpyridazin-3-yl)(3-(pyridin-4-yl)pyrrolidin-1-yl)methanone], the Emax at 30 µM is 99% and the EC50 amounted to 98 nM.
`Cc1nc(Cl)c(C)c(N2CCc3ncc(-c4ccc(N(C)C)nc4)cc3C2)n1` [compound 220, 5-(6-(6-chloro-2,5-dimethylpyrimidin-4-yl)-5,6,7,8-tetrahydro-1,6-naphthyridin-3-yl)-N,N-dimethylpyridin-2-amine]: the Emax at 30 µM was determined as 82% and the EC50 came to 518 nM.
Taken in the same sequence, the figures for `Cc1cc(C(=O)N2CC(C)(F)C2)nnc1N1CCc2ncc(N3CCCn4nccc43)cc2C1` [Example 546, (6-(3-(6,7-dihydropyrazolo[1,5-a]pyrimidin-4(5H)-yl)-7,8-dihydro-1,6-naphthyridin-6(5H)-yl)-5-methylpyridazin-3-yl)(3-fluoro-3-methylazetidin-1-yl)methanone] were 116% and 16 nM.
Consider `Cc1nc(C)c(C)c(N2CCc3ncc(N4CCCn5nccc54)cc3C2)n1` [compound 244, 3-(6,7-dihydropyrazolo[1,5-a]pyrimidin-4(5H)-yl)-6-(2,5,6-trimethylpyrimidin-4-yl)-5,6,7,8-tetrahydro-1,6-naphthyridine], for which the Emax at 30 µM is 99% and the EC50 is 25 nM.
On to `Cc1c(C#N)nnc(N2CCc3ncc(-c4ccc(F)nc4)cc3C2)c1C` [Example 334, 6-(3-(6-fluoropyridin-3-yl)-7,8-dihydro-1,6-naphthyridin-6(5H)-yl)-4,5-dimethylpyridazine-3-carbonitrile], for which the Emax at 30 µM amounted to 60% and the concentration giving a half-maximal response (EC50) was found to be 582 nM.
For `Cc1cc(C#N)cnc1N1CCc2ncc(-c3cnn(-c4ccc(F)cc4)c3)cc2C1` [compound 106, 6-[3-[1-(4-fluorophenyl)pyrazol-4-yl]-7,8-dihydro-5H-1,6-naphthyridin-6-yl]-5-methyl-pyridine-3-carbonitrile], the Emax at 30 µM is 33% and the EC50 was found to be 1140 nM.
The matching figures for `Cc1cc(C#N)cnc1N1CCc2ncc(-c3ccns3)cc2C1` [compound 291, 6-(3-(isothiazol-5-yl)-7,8-dihydro-1,6-naphthyridin-6(5H)-yl)-5-methylnicotinonitrile]: 96% and 88 nM.
`Cc1cc(C(=O)NCc2cncs2)cnc1N1CCc2ncccc2C1` [compound 62, 6-(7,8-dihydro-5H-1,6-naphthyridin-6-yl)-5-methyl-N-(thiazol-5-ylmethyl)pyridine-3-carboxamide]: the Emax at 30 µM was 78% and the EC50 amounted to 760 nM.
Consider `CNC(=O)c1cnc(N2CCc3ncccc3C2)c(C)c1` [compound 57, 6-(7,8-dihydro-5H-1,6-naphthyridin-6-yl)-N,5-dimethyl-pyridine-3-carboxamide], for which the Emax worked out at 63% and the EC50 was at least 10000 nM.
